Assay results from ChEMBL document CHEMBL4417630, “Small-molecule inhibitors of Rac1 in metastatic breast cancer” (2014).
Activity calls are given as the source filed them. The rule behind the calls is not given here.

Legend:
[1] = target: Ras-related C3 botulinum toxin substrate 3 (Homo sapiens) (UniProt P60763); assay: Inhibition of Rac3 in human MDA-MB-435 cells assessed as remaining enzyme activity at 1 uM by Western blotting based pulldown assay (reference value: 100%); type: cell-based
[2] = target: Ras-related C3 botulinum toxin substrate 1 (Homo sapiens) (UniProt P63000); assay: Potency index, ratio of IC50 for NSC-23766 to IC50 for test compound for inhibition of Rac1 in human MDA-MB-435 cells incubated for 24 hrs by G-LISA Rac1 activation assay; type: cell-based
[3] = target: Cell division control protein 42 homolog (Homo sapiens) (UniProt P60953); assay: Inhibition of Cdc42 in human MDA-MB-435 cells assessed as remaining enzyme activity at 2 uM by Western blotting based pulldown assay (reference value: 100%); type: cell-based
Chain of Cell division control protein 42 homolog (Homo sapiens) (P60953 whole entry, looked up): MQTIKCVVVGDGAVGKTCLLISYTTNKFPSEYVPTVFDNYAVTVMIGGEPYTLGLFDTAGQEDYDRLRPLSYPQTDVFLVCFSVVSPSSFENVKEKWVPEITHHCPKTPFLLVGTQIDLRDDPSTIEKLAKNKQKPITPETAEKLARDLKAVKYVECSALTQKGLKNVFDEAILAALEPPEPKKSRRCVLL

[4] = target: Cell division control protein 42 homolog (Homo sapiens) (UniProt P60953); assay: Inhibition of Cdc42 in human MDA-MB-435 cells assessed as remaining enzyme activity at 4 uM by Western blotting based pulldown assay (reference value: 100%); type: cell-based
[5] = target: Cell division control protein 42 homolog (Homo sapiens) (UniProt P60953); assay: Inhibition of Cdc42 in human MDA-MB-435 cells assessed as remaining enzyme activity at 5 uM by Western blotting based pulldown assay (reference value: 100%); type: cell-based
[6] = target: Cell division control protein 42 homolog (Homo sapiens) (UniProt P60953); assay: Inhibition of Cdc42 in human MDA-MB-435 cells assessed as remaining enzyme activity at 10 uM by Western blotting based pulldown assay (reference value: 100%); type: cell-based
[7] = target: Transforming protein RhoA (Homo sapiens) (UniProt P61586); assay: Activation of RhoA in human MDA-MB-435 cells assessed as remaining enzyme activity at 2 uM by Western blotting based pulldown assay (reference value: 100%); type: cell-based
Chain of Transforming protein RhoA (Homo sapiens) (P61586 whole entry, the tested form may be a part): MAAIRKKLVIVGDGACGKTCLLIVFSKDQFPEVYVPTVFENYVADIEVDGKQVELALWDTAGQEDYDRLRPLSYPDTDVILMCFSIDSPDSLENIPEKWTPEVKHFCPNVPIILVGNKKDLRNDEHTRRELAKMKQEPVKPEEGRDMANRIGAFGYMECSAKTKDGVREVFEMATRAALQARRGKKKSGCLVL

[8] = target: Transforming protein RhoA (Homo sapiens) (UniProt P61586); assay: Activation of RhoA in human MDA-MB-435 cells assessed as remaining enzyme activity at 4 uM by Western blotting based pulldown assay (reference value: 100%); type: cell-based
[9] = target: Transforming protein RhoA (Homo sapiens) (UniProt P61586); assay: Activation of RhoA in human MDA-MB-435 cells assessed as remaining enzyme activity at 5 uM by Western blotting based pulldown assay (reference value: 100%); type: cell-based
[10] = target: Transforming protein RhoA (Homo sapiens) (UniProt P61586); assay: Activation of RhoA in human MDA-MB-435 cells assessed as remaining enzyme activity at 10 uM by Western blotting based pulldown assay (reference value: 100%); type: cell-based
[11] = system: Ras-related C3 botulinum toxin substrate 1 (Homo sapiens), P63000 [G15A]; assay: Inhibition of glutathione agarose conjugated Rac1 G15A mutant (unknown origin) in assessed as reduction in purified Tiam-1 DH/PH domain association with Rac1 G15A mutant at 40 uM by Western blotting based pulldown assay relative to control
[12] = target: Ras-related C3 botulinum toxin substrate 1 (Homo sapiens) (UniProt P63000); assay: Inhibition of Rac1 in human MDA-MB-231 cells assessed as remaining enzyme activity at 2 uM by Western blotting based pulldown assay (reference value: 100%); type: cell-based
[13] = target: Ras-related C3 botulinum toxin substrate 1 (Homo sapiens) (UniProt P63000); assay: Inhibition of Rac1 in human MDA-MB-231 cells assessed as remaining enzyme activity at 4 uM by Western blotting based pulldown assay (reference value: 100%); type: cell-based
[14] = target: Ras-related C3 botulinum toxin substrate 1 (Homo sapiens) (UniProt P63000); assay: Inhibition of Rac1 in human MDA-MB-435 cells assessed as remaining enzyme activity at 2 uM by Western blotting based pulldown assay (reference value: 100%); type: cell-based
[15] = target: Ras-related C3 botulinum toxin substrate 1 (Homo sapiens) (UniProt P63000); assay: Inhibition of Rac1 in human MDA-MB-435 cells assessed as remaining enzyme activity at 4 uM by Western blotting based pulldown assay (reference value: 100%); type: cell-based
[16] = target: Cell division control protein 42 homolog (Homo sapiens) (UniProt P60953); assay: Inhibition of Cdc42 in human MDA-MB-435 cells assessed as inhibition of lamellipodia formation at 2 to 4 uM incubated for 24 hrs rhodamine phalloidin staining based fluorescence microscopy; type: cell-based
[17] = target: Cell division control protein 42 homolog (Homo sapiens) (UniProt P60953); assay: Inhibition of Cdc42 in human MDA-MB-231 cells assessed as inhibition of lamellipodia formation at 2 to 4 uM incubated for 24 hrs rhodamine phalloidin staining based fluorescence microscopy; type: cell-based
[18] = target: Ras-related C3 botulinum toxin substrate 1 (Homo sapiens) (UniProt P63000); assay: Inhibition of Rac1 in human MDA-MB-435 cells assessed as reduction in PAK1 […] phosphorylation at 2 to 4 uM by Western blot analysis; type: cell-based
MDA-MB-231 [19] = assay: Cytotoxicity against human MDA-MB-231 cells assessed as reduction in cell viability at 1 to 2 uM incubated for 24 hrs by MTT assay; type: functional, cell-based
MDA-MB-435 [20] = assay: Cytotoxicity against human MDA-MB-435 cells assessed as reduction in cell viability at 1 to 2 uM incubated for 24 hrs by MTT assay; type: functional, cell-based
MCF-10A [21] = assay: Cytotoxicity against human MCF10A cells assessed as reduction in cell viability at 1 to 2 uM incubated for 24 hrs by MTT assay; type: cell-based
MDA-MB-435 [22] = assay: Cytotoxicity against human MDA-MB-435 cells assessed as reduction in cell viability at 25 uM incubated for 24 hrs by MTT assay; type: functional, cell-based
MDA-MB-231 [23] = assay: Cytotoxicity against human MDA-MB-231 cells assessed as reduction in cell viability at 25 uM incubated for 24 hrs by MTT assay; type: functional, cell-based
MCF-10A [24] = assay: Cytotoxicity against human MCF10A cells assessed as reduction in cell viability at 25 uM incubated for 24 hrs by MTT assay; type: cell-based
[25] = system: Ras-related C3 botulinum toxin substrate 1 (Homo sapiens), P63000 [G15A]; assay: Inhibition of glutathione agarose conjugated Rac1 G15A mutant (unknown origin) in assessed as reduction in purified Tiam-1 DH/PH domain association with Rac1 G15A mutant at […] by Western blotting based pulldown assay relative to control
[26] = Toxicity in athymic nude mouse assessed as effect on body weight at 1 mg/kg, ip dosed once week for 9 weeks; type: organism-based; conditions: in vivo, 1512 h
[27] = Toxicity in athymic nude mouse assessed as effect on body weight at 1 mg/kg, po dosed once week for 9 weeks; type: organism-based; conditions: in vivo, 1512 h
[28] = Toxicity in athymic nude mouse assessed as effect on gross indications of toxicity at 1 mg/kg, ip dosed once week for 9 weeks; type: organism-based; conditions: in vivo, 1512 h
[29] = Toxicity in athymic nude mouse assessed as effect on gross indications of toxicity at 1 mg/kg, po dosed once week for 9 weeks; type: organism-based; conditions: in vivo, 1512 h
[30] = system: Ras-related C3 botulinum toxin substrate 1 (Homo sapiens), P63000 [G15A]; assay: Inhibition of glutathione agarose conjugated Rac1 G15A mutant (unknown origin) in assessed as reduction in purified Tiam-1 DH/PH domain association with Rac1 G15A mutant by measuring average Tiam-1 level in pulldown at 4 uM by Western blotting based pulldown assay (reference value: 100%); parameters: scale not given: the % may be the effect or the level left
[31] = system: Ras-related C3 botulinum toxin substrate 1 (Homo sapiens), P63000 [G15A]; assay: Inhibition of glutathione agarose conjugated Rac1 G15A mutant (unknown origin) in assessed as reduction in purified Tiam-1 DH/PH domain association with Rac1 G15A mutant by measuring average Tiam-1 level in pulldown at 8 uM by Western blotting based pulldown assay (reference value: 100%); parameters: scale not given: the % may be the effect or the level left
[32] = system: Ras-related C3 botulinum toxin substrate 1 (Homo sapiens), P63000 [G15A]; assay: Inhibition of glutathione agarose conjugated Rac1 G15A mutant (unknown origin) in assessed as reduction in purified Tiam-1 DH/PH domain association with Rac1 G15A mutant by measuring average Tiam-1 level in pulldown at 25 uM by Western blotting based pulldown assay (reference value: 100%); parameters: scale not given: the % may be the effect or the level left

SMILES: CCn1c2ccccc2c2cc(Nc3ccnc(NCCCN4CCOCC4)n3)ccc21
- Activity [1]: 42%
- Ratio IC50 [2]: 100
- Activity [3]: 104%
- Activity [4]: 95%
- Activity [5]: 72%
- Activity [6]: 25%
- Activity [7]: 155%
- Activity [8]: 128%
- Activity [9]: 125%
- Activity [10]: 123%
- inhibition [11]: Active
- Activity [12]: 65%
- Activity [13]: 35%
- Activity [14]: 19%
- Activity [15]: 7%
- inhibition [16]: inactive
- inhibition [17]: inactive
- inhibition [18]: Active
- Activity (MDA-MB-231 [19]): inactive
- Activity (MDA-MB-435 [20]): inactive
- Activity (MCF-10A [21]): Non-Toxic
- Activity (MDA-MB-435 [22]): Active
- Activity (MDA-MB-231 [23]): Active
- Activity (MCF-10A [24]): Toxic
- inhibition [25]: Active
- Activity [26]: Non-Toxic
- Activity [27]: Non-Toxic
- Activity [28]: Non-Toxic
- Activity [29]: Non-Toxic
- Activity [30]: 123%
- Activity [31]: 96%
- Activity [32]: 112%
